PubChem BioAssay (NCI)
Values joined by “and” are separate entries in the source; they are usually repeats but may differ in a detail not shown here. Identical values can stand only once.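 A five-concentration, 48-hour dose response in 96-well plates underlies each endpoint, interpolated linearly between surrounding concentrations. GI50: concentration for 50% inhibition of growth. TGI: concentration producing complete growth inhibition.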

Legend:
Assay in all cases: NCI tumour cell line growth inhibition, 48 h
A498 renal = test system: A498 renal
EKVX NSCLC = test system: EKVX NSCLC
HT29 colon = test system: HT29 colon
NCI-H23 lung = test system: NCI-H23 lung
NCI-H460 lung = test system: NCI-H460 lung
OVCAR-5 ovarian = test system: OVCAR-5 ovarian
RXF 393 renal = test system: RXF 393 renal
SK-MEL-5 melanoma = test system: SK-MEL-5 melanoma
SN12C renal = test system: SN12C renal
T-47D breast = test system: T-47D breast

Compound	GI50 (A498 renal)	TGI (A498 renal)	TGI (EKVX NSCLC)	GI50 (HT29 colon)	TGI (HT29 colon)	TGI (NCI-H23 lung)	TGI (NCI-H460 lung)	GI50 (OVCAR-5 ovarian)	TGI (OVCAR-5 ovarian)	TGI (RXF 393 renal)	TGI (SK-MEL-5 melanoma)	GI50 (SN12C renal)	TGI (SN12C renal)	GI50 (T-47D breast)	TGI (T-47D breast)	GI50 (EKVX NSCLC)	GI50 (NCI-H23 lung)	GI50 (NCI-H460 lung)	GI50 (RXF 393 renal)	GI50 (SK-MEL-5 melanoma)
CC[C@H](CO)Nc1nc(NCc2ccccc2)c2ncn(C(C)C)c2n1	30.1 µM	> 88.7 µM	44.1 µM	24.3 µM	> 100 µM	41.9 µM	> 100 µM	28 µM	> 96.4 µM	> 52.4 µM	35.5 µM	27 µM	> 100 µM	21.7 µM	> 84.2 µM					
COc1ccc(CC(=O)c2ccc(O)cc2O)cc1	29.3 µM	> 100 µM	> 100 µM	> 100 µM	> 100 µM	> 100 µM	> 100 µM	> 100 µM	> 100 µM	> 100 µM	> 100 µM	93.2 µM	> 100 µM	56.7 µM	> 100 µM	47.7 µM	63.5 µM	56.1 µM	> 100 µM	48.3 µM
C=C1c2ccoc2C[C@H]2[C@H]1CC[C@@]1(O)[C@@](C)(C(=O)OC)CCC[C@]21C	21.9 µM	40.8 µM	> 100 µM	17.5 µM	81.6 µM	> 100 µM	49.9 µM	> 100 µM	> 100 µM	> 100 µM	37.8 µM	16.9 µM	34 µM	27.3 µM	> 100 µM	37 µM	44.4 µM	18 µM	48 µM	18.1 µM
COc1cc([N+](=O)[O-])c(OC)cc1-c1nc2sccn2c1/C=N/N=C(N)N	27.4 µM	66.5 µM	73.6 µM	82.1 µM	> 100 µM	71.9 µM	> 100 µM	53.8 µM	> 100 µM	> 100 µM	> 100 µM	9.36 µM	42.1 µM	22.2 µM	> 100 µM	25.9 µM	14.8 µM	28.3 µM	50.1 µM	33.7 µM
COC(=N)c1c(N)[n+]([O-])c2ccc(F)cc2[n+]1[O-]	40.4 µM	> 100 µM	> 100 µM	> 100 µM	> 100 µM	> 100 µM	> 100 µM	> 100 µM	> 100 µM	> 100 µM	> 100 µM	> 100 µM	> 100 µM	> 100 µM	> 100 µM	99.1 µM	> 100 µM	58.1 µM	> 100 µM	52.6 µM
Nc1ccccc1C#C/C=C\C#Cc1cccc(O)c1	11 µM	35.9 µM	23.4 µM	11.4 µM	41.7 µM	9.38 µM	> 34.2 µM	7.64 µM	23 µM	5.02 µM	14.5 µM	2.66 µM	19.6 µM	7.3 µM	> 60.8 µM	2.69 µM	2.44 µM	3.19 µM	0.423 µM	2.47 µM
N#Cc1nc2c(S(=O)(=O)c3ccc(Cl)cc3)c(N)n(CCCN3CCOCC3)c2nc1C#N	2.6 µM	14.6 µM	22.7 µM	5.96 µM	> 100 µM	42.7 µM	40.9 µM	20.8 µM	54.9 µM	5.21 µM	20 µM	10 µM	> 100 µM	2.95 µM	16.6 µM	10.6 µM	7.41 µM	15.8 µM	1.05 µM	6.67 µM
COc1cc(/C=C/C(=O)c2ccc(F)cc2)ccc1OCCCN1CCN(CC(=O)Nc2ccc(Cl)cc2C(=O)c2ccccc2Cl)CC1	29.4 µM	> 100 µM	> 100 µM	2.05 µM	10.4 µM	> 100 µM	> 100 µM	13.4 µM	> 100 µM	15.8 µM	14.7 µM	12.7 µM	44.3 µM	21.4 µM	> 100 µM	31.3 µM	17.4 µM	4.47 µM	2.84 µM	3.42 µM
O=C1c2ccc3c4c(ccc(c24)C(=O)N1CCCNCc1ccccc1Cl)C(=O)N(CCCNCc1ccccc1Cl)C3=O	0.712 µM	1.43 µM	1.16 µM	0.123 µM	0.335 µM	0.86 µM	0.817 µM	0.592 µM	1.67 µM	0.366 µM	1.02 µM	0.0995 µM	0.206 µM	0.787 µM	2.17 µM	0.481 µM	0.217 µM	0.212 µM	0.121 µM	0.399 µM
Cc1cnc(CNC(=O)c2c(=O)c3ccc(N4CCCN(C)CC4)nc3n3c2sc2ccccc23)cn1	12.2 µM	25.2 µM	23.2 µM	1.43 µM	19 µM	6.1 µM	2.14 µM	13.2 µM	28.9 µM	18.9 µM	22.1 µM	1.32 µM	19.9 µM	17.3 µM	45.6 µM	9.14 µM	0.922 µM	0.162 µM	3.39 µM	8.35 µM
O=[N+]([O-])c1ccc(N2CCC(CCCC3CCN(c4ccc([N+](=O)[O-])cc4[N+](=O)[O-])CC3)CC2)c([N+](=O)[O-])c1		31.8 µM	34.3 µM		22.2 µM	54.3 µM	28.8 µM		45.7 µM	35.4 µM	30.7 µM		> 100 µM		29.2 µM					
O=c1c(O)c(-c2ccc(O)c(O)c2)oc2cc(O)cc(O)c12	7.11 µM	24.2 µM and > 100 µM	> 100 µM	37.3 µM	> 100 µM	50 µM	66.9 µM and > 100 µM	30.2 µM	> 100 µM	50.9 µM and > 100 µM	44 µM and > 100 µM	10.5 µM	> 100 µM	23.8 µM	> 100 µM	23.9 µM	9.65 µM	6.73 µM	11.7 µM	9.24 µM
COc1ccc(/C=C(\C(=O)NCc2cccnc2)S(=O)(=O)c2ccccc2)cc1OC	2.78 µM	8 µM	12.2 µM	3.45 µM	14.8 µM	10.6 µM	6.67 µM	3.31 µM	10.3 µM	4.26 µM	10.9 µM	2.49 µM	9.15 µM	2.59 µM	10.8 µM	3.13 µM	3.01 µM	2.4 µM	2.08 µM	2.97 µM
O=S(=O)(c1cccc2c(I)cccc12)N1CCCNCC1	14.2 µM	30.2 µM	39.7 µM	20.8 µM	55.3 µM	34 µM	> 100 µM	16 µM	33.5 µM	73 µM	25.2 µM	21.2 µM	38.4 µM	25.4 µM	64.9 µM	19.8 µM	17 µM	33.2 µM	27.3 µM	8.71 µM
COc1ccc(C(=O)/C=C/c2cccc(Nc3ccnc4cc(Cl)ccc34)c2)cc1	3 µM	55.3 µM	> 100 µM	1.64 µM	> 100 µM	> 100 µM	> 100 µM	2.6 µM	> 100 µM	5.17 µM				0.655 µM	4.64 µM	1.75 µM	1.49 µM	2.23 µM	1.82 µM	
Cc1nn(-c2ccc(Cl)cc2)c2nc3c(nc12)C(=O)C(=O)c1ccccc1-3	1.27 µM	2.96 µM	> 100 µM	2.01 µM	3.99 µM	3.88 µM		12 µM	> 100 µM	64.6 µM	24.1 µM	2.7 µM	12.6 µM	12.1 µM	29.9 µM	7.36 µM	1.71 µM		19.7 µM	4.94 µM
CC1=C(C(=O)N(C)c2ccc(Cl)c(C(=O)OC(C)C)c2)SCCO1		> 100 µM	> 100 µM		> 100 µM	> 100 µM	> 100 µM		> 100 µM		> 100 µM		> 100 µM		> 100 µM					
C=C1CC[C@@H]2[C@](C)(COC(C)=O)[C@H](OC(C)=O)CC[C@@]2(C)[C@@H]1CC(Nc1ccc(S(=O)(=O)Nc2ccc(Cl)nn2)cc1)C1=CCOC1=O (some centres undefined)	1.4 µM	4.26 µM	17 µM			5.35 µM	4.31 µM	2.01 µM	4.16 µM	3.29 µM	3.13 µM	1.25 µM	3.66 µM	1.51 µM	4.25 µM	4.53 µM	2.06 µM	2.03 µM	1.77 µM	1.6 µM
CCOC(=O)C1CCCCN1C(=O)c1ccc(Nc2cnc3cc(C(F)(F)F)ccc3n2)cc1 (centres undefined)	10.3 µM	22.9 µM	> 100 µM			28.6 µM	30.4 µM	10.3 µM	23 µM	8.45 µM	25.1 µM	16.2 µM	31.5 µM	6.91 µM	> 100 µM	36 µM	14.7 µM	13.3 µM	3.23 µM	12.4 µM
